Test results: US20030072716A1, “Renewable, carbohydrate based CO2-philes” (priority 2001, published 2003)

Key:
[1] = Deliquescence, swelling and dissolution in CO2 in a high-pressure view cell near room temperature; format: physicochemical; conditions: for solubility / miscibility in liquid CO2: BGLU at 23.0° C., 60.5 bar
From the text: The interaction of BGLU in carbon dioxide was examined in a high-pressure view cell. The BGLU was exposed to carbon dioxide at near room temperature and a pressure of from 35 to 40 bar.
The procedure according to Example 1 was repeated except that the carbon dioxide pressure was 55.9 bar. A solid to liquid transition (i.e., deliquescence) of the BGLU was observed. […] See FIG. 3, Panel (C) and FIG. 3, Panel (D). Upon reaching liquid-vapor equilibrium pressure, the liquid carbon dioxide formed a separate layer on top of the viscous melt containing carbon dioxide.
BGLU is a white solid that melts at 132° C. under atmospheric pressure conditions (FIG. 3, Panel (A)). However, as BGLU is exposed to CO2 near room temperature (23.0° C.) in a conventional high-pressure view cell, it absorbs CO2 and becomes “wetted” with CO2 at a pressure of 35-40 bar. The white solid appears as a salt does in a humid environment. Furthermore, at a gaseous CO2 pressure of 55.9 bar a solid-to-liquid transition (deliquescence) occurs (FIG. 3, Panel (B)). This is analogous to the deliquescence of hygroscopic materials absorbing atmospheric moisture. […] Upon reaching the liquid-vapor equilibrium pressure, the liquid CO2 forms a separate layer on top of the viscous melt containing CO2. However, the melt easily mixes with the upper layer of liquid CO2 on stirring and forms a single-phase liquid mixture in contact with the gaseous CO2 phase (FIG. 3, Panel (E)). Further addition of CO2 only dilutes this liquid phase (FIG. 3F). Although, CO2-induced swelling (Rover et al., (1999) Macromolecules 32: 8965-8973) and CO2-assisted melting point depression (Zhang & Handa, (1997) Macromolecules 30: 8505-8507.) have been reported in polymers by sorption of CO2 under high pressures, the materials are not readily miscible in liquid and supercritical CO2, indicating the lack of a significant attractive interaction.

[2] = Solubility and cloud-point behaviour in supercritical CO2 at 40 °C; format: physicochemical; conditions: for miscibility with CO2 from cloud-point data: scCO2, 40.0° C., relatively low pressures, up to 30% (wt); for solubility behaviour in supercritical CO2: supercritical CO2, 40° C.
Experimental: The solubility of BGLU and AGLU in supercritical carbon dioxide were examined at 40° C. […] The behavior is illustrated in FIG. 3. At the cloud point pressure, phase separation commences between the supercritical carbon dioxide and the sugar ester melt. Upon lowering the pressure, the material reappears in the solid state (see FIG. 4).
The cloud-point pressures of these systems in scCO2 were examined at 40.0° C. As in the subcritical case, initially the solid melts and swells (for AGLU and BGLU) and all three peracetylated sugars readily go into a single-phase, scCO2 system. A plot of the cloud-point pressure versus the weight percent for AGLU, BGLU, and BGAL dissolved in supercritical CO2 at 40.0° C. is given in FIG. 4. At the cloud-point pressure, phase separation begins between scCO2 and the sugar ester. Upon lowering the pressure, the material reappears in the solid state. No cloud-point measurements were made above 30% (wt) due to limitations arising from the volume of the view cell and the rapid swelling of the sample in the cases of AGLU and BGLU.

| SMILES | deliquescence point, amount lower than that of BGLU ([1]; difference relative to BGLU) | miscibility with CO2 from cloud-point data [2] | solubility behaviour in supercritical CO2 [2] | deliquescence in CO2 ([1]; contact with CO2) | solubility / miscibility in liquid CO2 [1] | concentration in the CO2-induced melt ([1]; approximate estimate, melt can be diluted with liquid or scCO2 in any proportion) | swelling of the melt on CO2 absorption ([1]; changes in gaseous CO2 pressure of only 2 and 3 bar above deliquescence pressure) | gaseous CO2 pressure at which solid-to-liquid transition (deliquescence) occurs ([1]; gaseous CO2, 23.0° C., high-pressure view cell) [bar] | CO2 pressure at which the solid absorbs CO2 and becomes wetted ([1]; near room temperature (23.0° C.)) |
| --- | --- | --- | --- | --- | --- | --- | --- | --- | --- |
| CC(=O)OC[C@H]1O[C@H](OC(C)=O)[C@H](OC(C)=O)[C@@H](OC(C)=O)[C@@H]1OC(C)=O [AGLU, alpha 1,2,3,4,6-pentaacetyl-D-glucose] | 6-7 bar | complete miscibility | melted, swelled, and readily dissolved |  |  |  |  |  |  |
| CC(=O)OC[C@H]1O[C@@H](OC(C)=O)[C@H](OC(C)=O)[C@@H](OC(C)=O)[C@H]1OC(C)=O [BGAL, beta 1,2,3,4,6-pentaacetyl β-D-galactose] |  |  |  | does not exhibit deliquescence | readily soluble |  |  |  |  |
| CC(=O)OC[C@H]1O[C@@H](OC(C)=O)[C@H](OC(C)=O)[C@@H](OC(C)=O)[C@@H]1OC(C)=O [BGLU, beta 1,2,3,4,6-pentaacetyl-D-glucose] |  | complete miscibility | melted, swelled, and readily dissolved |  | complete miscibility | more than 80 wt % | swells to many times its original volume | 55.9 | 35-40 bar |
